Experimental data taken from patent publication US20170198027A1 (priority 2012, published 2017).

Columns and labels:
6-OHDA lesioned rat = 6-OHDA lesioned rat model of Parkinson's disease (cylinder, adjusting step, rotation, TH staining); format: in vivo; conditions: prophylactic, high and moderate groups vs vehicle, trend
Description: 1. Animals: male SO rats were purchased from Shanghai Laboratory Animal Center (SLAC). They were housed under 21-23 OC, with 12 h light-dark life cycle. Food and water were given ad libitum.
2. 6uOHDA lesion: Rats were anesthetized with 60 mg/kg sodium pentobarbital. They were stereotaxic injected with total dose of 20 pg of fresh prepared 6-OHDA (dissolved in saline containing 0.05% ascorbic acid, calculated as free base) into tvvo sites of the left striatum, using the following coordinates (in mm relative to Bregma): AP+i 0.0, L −2.5, DV −5.0; AP −0.4, L −4.0, DV −5.5. The injection rate was i pi/min and a total of 2 iJI was injected at each site. The needle was left in place for 3 min before retracting.
3. Cylinder test: Rats were placed in a transparent cylinder (22 cm in diameter and 30 cm height). Animal would rear and support its body with one or both of its forelimbs. […] Each behavioral was expressed as percent use of left, right or both limb(s) relative to the total number.
4. […] The number of adjusting steps of each left and right forelimbs on both directions was recorded individually. […]
6. […] Number of positively stained cells in the left and right sides of SN in each section was counted to make the summation. The ratio of left/right was calculated.
7. Statistic analysis: Data were expressed as mean±SEI\tl and analyzed with ANOVA followed by Tukey test. […]

[1] = tested on: ApoE ko mice fed with high fat diet
From the text: 10 ApoE ko mice were fed with regular chow diet and used as negative control group. 50 ApoE ko mice were fed with high fat diet (35% kcal fat, 1% cholesterol) for 8 weeks, and then the plasma samples were collected for lipid profile measurement before the treatment. 50 ApoE ko mice were assigned into 5 groups based on the fasting overnight plasma TC and HDL level.
19 Mar. 2012 to 6 Apr. 2012: Group the mice based on the TC and HDL level and start the treatment with 3 doses of antibody APOA1 by i.p daily on the weekday (The first dose was administered by iv injection
13 Apr. 2012-14 May 2012: The treatment with antibody APOA1 was changed to i.p injection every two days (Monday, Wednesday, and Friday) per client's instruction.
Antibody products were administrated by intraperitoneal injection every two days (Monday, Wednesday, and Friday). and the positive compound was administered by p.o every day.
5.4. Body weight and blood glucose measurement: The body weight was weighed weekly during the period of treatment. The fasting overnight blood glucose was measured at the end of study by Roche glucometer.
5.5 24 h food intake measurement: 24 hours food intake for each cage was measured weekly
5.6. Plasma lipid profile measurement: About 300 ul of blood sample was collected from the orbital vein for each mouse and centrifuged at 7000 rpm for 5 min at 4° C. and the plasma lipid profile was measured by Roche Modular automatic biochemistry analyzer in DaAn Medical Laboratory
After RAAS antibody products treatment for 8 weeks, all mice were sacrificed. Measured body weight and collected blood sample for each mouse. Weighed liver weight and saved a tiny piece of liver into 4% paraformaldehyde (PFA) fixation solution for further analysis. At same time, take the photos with heart, lung, aortas and two kidneys.
Scanning the glasses slides with the Aperio ScanScope system and analyze with the image proplus software to measure the area of atherosclerotic plaque session. The results were expressed as the percentage of the total aortic surface area covered by lesions. The operation procedure of software was briefly described as follow: Converted the sys version photos into JPG version, then calibrated it and subsequently selected the red regions and then calculate the total area automatically by image proplus software.
The results were expressed as the Mean±SEM and statistically evaluated by student's t-test.

## human Apoiipoprotein AI, injection [APOA1]
6-OHDA lesioned rat
  neuron count, damage caused by 6-OHDA lesion: reduce the damage caused by 6-OHDA lesion
[1]; APOA1 mid dose and low dose, not significant vs vehicle
  arteriosclerosis plaque lesion in the region of thoracic aorta (root plaque area): trend of reducing the arteriosclerosis plaque lesion
[1]; after 8 week treatment, APOA1 low dose
  plasma total cholesterol (TC): significantly lower total cholesterol level
[1]; after 8 weeks treatment
  plasma TG level: no effect
[1]; after 8 weeks treatment vs vehicle
  fasting overnight blood glucose: no effect
[1]; after 8 weeks treatment vs vehicle, RAAS antibody low dose, atorvastatin 20 mg/kg
  ratio of liver weight/body weight: reduced the ratio of liver weight/body weight significantly
[1]; after 8 weeks treatment, APOA1 low dose
  atherosclerosis plaque lesion area of aorta: trend on reducing the plaque lesion area
[1]; after 15 doses treatment
  deaths in the treatment groups: several mice died
[1]; atorvastatin p=0.08
  atherosclerosis plaque lesion from the aortic root to right renal artery: trend of reducing the atherosclerosis plaque lesion in a dose dependent manner
[1]; low dose, after 4 weeks treatment
  plasma HDL: significantly decrease the HDL level
[1]; vs vehicle group, atorvastatin after 5 weeks treatment
  body weight: trend on reducing body weight but didn't reach statistic difference
